# System: HBV
# Assay: HBV-DNA Antiviral Assay Using HepG2.117 Cells (intracellular HBV DNA by qPCR)
# Assay type: cell-based, hepatitis B virus (genotype D)
# Details: Hepatitis B virus, HepG2.117
# Procedure: The following assay procedure describes the HBV antiviral assay, using HepG2.117 cells, which carry a stably integrated genotype D HBV genome under the control of a Tet-off promoter, and intracellular HBV DNA quantification as endpoint. Cell viability is assessed in parallel by measuring the intracellular ATP content using ATPlite (Perkin Elmer).
# On day 0, HepG2.117 cells (which are maintained in routine cell culture with doxycycline present in the medium at a final concentration of 1 μg/mL) were seeded in 96-well plates (white with clear bottom) at a density of 2.0×10^4 cells/well (0.1 mL/well) in medium without doxycycline to induce pgRNA transcription and subsequent formation of HBV particles. The cells were incubated at 37° C. and 5% CO2.
# On day 1, medium was removed from each well, the test articles were diluted in culture medium without doxcycyline and 100 μL was added to cell culture wells (9 concentrations, 4-fold dilution). For each plate, 6 untreated (merely DMSO) wells were included. The final concentration of DMSO in the culture medium was 2%. Each plate was prepared in duplicate (one for HBV DNA extraction, one for ATPlite measurement). The cells were incubated at 37° C. and 5% CO2 for 3 days.
# On day 4, cell viability was assessed using ATPlite and cell lysates were prepared for HBV DNA extraction and subsequent quantification by qPCR.
# Medium was removed from each well and 100 μL of 0.33% NP-40 in H2O was added to each well. Plates were sealed, incubated at 4° C. for 5 mins, vortexed extensively and centrifuged briefly. Next, 35 μL of lysate was added to 65 μL QuickExtract DNA Extraction Solution (Epicentre) in a PCR plate for each well. PCR plate was incubated at 65° C. for 6 mins, 98° C. for 2 mins and finally cooled to 4° C. HBV DNA was then quantified by qPCR with HBV-specific primers and probes as specified in Table 3 using the Bio-Rad SSOAdvanced Universal Probes Supermix on a CFX96 machine (Bio-Rad). The PCR cycle program consisted of 95° C. for 3 mins, followed by 40 cycles at 95° C. for 10 sec and 60° C. for 30 sec.
# A DNA standard was prepared by dilution of an IDT gBlock corresponding to the amplicon with concentrations ranging from 10^2 to 10^8 copies/input (i.e. per 4 μL) and used to generate a standard curve by plotting Cq values vs. HBV DNA standard concentration. The quantity of HBV DNA in each sample was determined by interpolating from the standard curve.
# Cell viability was calculated as follows: % Cell viability=(luminescence value of test sample)/(average luminescence value of 2% DMSO control)×100%. HBV DNA inhibition was calculated as follows: 100−(HBV DNA copy number of test sample)/(average HBV DNA copy number of 2% DMSO control)×100%. No normalization to entecavir was required due to the excellent dynamic window of this assay. The CC50, EC50 and EC90 values were determined by dose-response curves fitted by GraphPad Prism using “log (agonist) vs. response—Variable slope”.
row,SMILES,EC50 [nM]
1,"O=C(NCc1c(F)cccc1Cl)c1c2n(c(=O)n1-c1ccc(OC3CC3)cc1)CCN(C(=O)c1ccc(Br)c(Cl)c1)C2 [Example 305, 7-(4-bromo-3-chloro-benzoyl)-N-[(2-chloro-6-fluoro-phenyl)methyl]-2-[4-(cyclopropoxy)phenyl]-3-oxo-6,8-dihydro-5H-imidazo[1,5-a]pyrazine-1-carboxamide]",100 to 500
2,"CC(C)(Oc1ccc(CNC(=O)c2c3n(c(=O)n2-c2ccc(OCC(F)(F)F)cc2)CCN(C(=O)c2ccc(Br)c(Cl)c2)C3)c(F)c1)C(N)=O [Example 428, N-[[4-(2-amino-1,1-dimethyl-2-oxo-ethoxy)-2-fluoro-phenyl]methyl]-7-(4-bromo-3-chloro-benzoyl)-3-oxo-2-[4-(2,2,2-trifluoroethoxy)phenyl]-6,8-dihydro-5H-imidazo[1,5-a]pyrazine-1-carboxamide]",100 to 500
3,"O=C(NCc1ccccc1-n1cc(F)cn1)c1c2n(c(=O)n1-c1ccc(OCC(F)(F)F)cc1)CCN(C(=O)c1ccc(Br)c(Cl)c1)C2 [Example 327, 7-(4-bromo-3-chloro-benzoyl)-N-[[2-(4-fluoropyrazol-1-yl)phenyl]methyl]-3-oxo-2-[4-(2,2,2-trifluoroethoxy)phenyl]-6,8-dihydro-5H-imidazo[1,5-a]pyrazine-1-carboxamide]",< 100
4,"O=C(NCc1ccccc1-n1cccn1)c1c2n(c(=O)n1-c1ccc(OCC(F)(F)F)cc1)CCN(C(=O)c1ccc(Br)c(Cl)c1)C2 [Example 231, 7-(4-bromo-3-chloro-benzoyl)-3-oxo-N[(2-pyrazol-1-ylphenyl)methyl]-2-[4-(2,2,2-trifluoroethoxy)phenyl]-6,8-dihydro-5H-imidazo[1,5-a]pyrazine-1-carboxamide]",< 100
5,"C[C@H](NC(=O)c1c2n(c(=O)n1-c1ccc(OCC(F)(F)F)cc1)CCN(C(=O)c1ccc(Br)c(Cl)c1)C2)c1cccc2nccnc12 (stereo in doubt) [Example 384, 7-(4-bromo-3-chloro-benzoyl)-3-oxo-N-[rac-(1S)-1-quinoxalin-5-ylethyl]-2-[4-(2,2,2-trifluoroethoxy)phenyl]-6,8-dihydro-5H-imidazo[1,5-a]pyrazine-1-carboxamide]",100 to 500
6,"O=C(NCc1ccc(OC(F)(F)F)cc1F)c1c2n(c(=O)n1-c1ccc(OC3CC3)cc1)CCN(C(=O)c1ccc(Br)c(Cl)c1)C2 [Example 296, 7-(4-bromo-3-chloro-benzoyl)-2-[4-(cyclopropoxy)phenyl]-N-[[2-fluoro-4-(trifluoromethxoy)phenyl]methyl]-3-oxo-6,8-dihydro-5H-imidazo[1,5-a]pyrazine-1-carboxamide]",500 to 5000
7,"COc1ccc(CNC(=O)c2c3n(c(=O)n2-c2ccccc2)CCN(C(=O)c2ccc(Br)c(Cl)c2)C3)cc1OC [Example 32, 7-(4-bromo-3-chloro-benzoyl)-N-[(3,4-dimethoxyphenyl)methyl]-3-oxo-2-phenyl-6,8-dihydro-5H-imidazo[1,5-a]pyrazine-1-carboxamide]",100 to 500
8,"CC(C)Oc1ccc(-n2c(C(=O)NCc3ccccc3)c3n(c2=O)CCN(C(=O)c2ccc(Br)c(C#N)c2)C3)cc1 [Example 217, N-benzyl-7-(4-bromo-3-cyano-benzoyl)-2-(4-isopropoxyphenyl)-3-oxo-6,8-dihydro-5H-imidazo[1,5-a]pyrazine-1-carboxamide]",500 to 5000
9,"COc1ccc(-n2c(C(=O)NCc3ccc(OC)cc3OC)c3n(c2=O)CCN(C(=O)c2ccc(Br)c(Cl)c2)C3)cc1 [Example 143, 7-(4-bromo-3-chloro-benzoyl)-N-[(2,4-dimethoxyphenyl)methyl]-2-(4-methoxyphenyl)-3-oxo-6,8-dihydro-5H-imidazo[1,5-a]pyrazine-1-carboxamide]",< 100
10,"COc1ccc(-n2c(C(=O)N[C@@H](c3ccccc3)C(F)F)c3n(c2=O)CCN(C(=O)c2ccc(Br)c(Cl)c2)C3)cc1 (stereo in doubt) [Example 252, 7-(4-bromo-3-chloro-benzoyl)-2-(4-methoxyphenyl)-3-oxo-N-[rac-(1S)-2,2-difluoro-1-phenyl-ethyl]-6,8-dihydro-5H-imidazo[1,5-a]pyrazine-1-carboxamide]",100 to 500
11,"O=C(c1ccc(Br)c(Cl)c1)N1CCn2c(c3n(c2=O)C[C@H](F)CN(Cc2ccccc2)C3=O)C1 (stereo in doubt) [Example 200, rac-(11R)-13-benzyl-4-(4-bromo-3-chloro-benzoyl)-11-fluoro-4,7,9,13-tetrazatricyclo[7.5.0.0^2,7]tetradec-1-ene-8,14-dione]",100 to 500
12,"COc1ccc(-n2c(C(=O)NCc3ccccc3)c3n(c2=O)CCN(C(=O)c2ccc(Br)c(Cl)c2)C3)cc1 [Example 24, N-benzyl-7-(4-bromo-3-chloro-benzoyl)-2-(4-methoxyphenyl)-3-oxo-6,8-dihydro-5H-imidazo[1,5-a]pyrazine-1-carboxamide]",100 to 500
13,"COc1ccc(-n2c(C(=O)NCc3cccnc3)c3n(c2=O)CCN(C(=O)c2ccc(Cl)c(Cl)c2)C3)cc1 [Example 64, 7-(3,4-dichlorobenzoyl)-2-(4-methoxyphenyl)-3-oxo-N-(3-pyridylmethyl)-6,8-dihydro-5H-imidazo[1,5-a]pyrazine-1-carboxamide]",> 5000
14,"COc1cc(Cl)c(-n2c(C(=O)NCc3ccccc3)c3n(c2=O)CCN(C(=O)c2ccc(Cl)c(Cl)c2)C3)c(Cl)c1 [Example 96, N-benzyl-7-(3,4-dichlorobenzoyl)-2-(2,6-dichloro-4-methoxy-phenyl)-3-oxo-6,8-dihydro-5H-imidazo[1,5-a]pyrazine-1-carboxamide]",> 5000
15,"CC(C)Oc1ccc(-n2c(C(=O)NCc3ccc(C(=O)O)cc3)c3n(c2=O)CCN(C(=O)c2ccc(Br)c(Cl)c2)C3)cc1 [Example 294, 4-[[[7-(4-bromo-3-chloro-benzoyl)-2-(4-isopropoxyphenyl)-3-oxo-6,8-dihydro-5H-imidazo[1,5-a]pyrazine-1-carbonyl]amino]methyl]benzoic acid]",> 5000
16,"COc1ccc(-n2c(C(=O)NCc3ccccc3)c3n(c2=O)CC(C)N(C(=O)c2ccc(Br)c(Cl)c2)C3)cc1 (racemic) [Example 198, rac-(6R)-N-benzyl-7-(4-bromo-3-chloro-benzoyl)-2-(4-methoxyphenyl)-6-methyl-3-oxo-6,8-dihydro-5H-imidazo[1,5-a]pyrazine-1-carboxamide]",500 to 5000
17,"O=C(NCc1ccccc1-c1cocn1)c1c2n(c(=O)n1-c1ccc(OC3CC3)cc1)CCN(C(=O)c1ccc(Br)c(Cl)c1)C2 [Example 398, 7-(4-bromo-3-chloro-benzoyl)-2-[4-(cyclopropxy)phenyl]-N-[(2-oxazol-4-ylphenyl)methyl]-3-oxo-6,8-dihydro-5H-imidazo[1,5-a]pyrazine-1-carboxamide]",< 100
18,"COC1CCC(n2c(C(=O)N[C@H](C)c3ccccc3)c3n(c2=O)CCN(C(=O)c2ccc(Br)c(Cl)c2)C3)CC1 (mixture of isomers) [Example 254, 7-(4-bromo-3-chloro-benzoyl)-2-(4-methoxycyclohexyl)-3-oxo-N-[rac-(1R)-1-phenylethyl]-6,8-dihydro-5H-imidazo[1,5-a]pyrazine-1-carboxamide]",> 5000
19,"CNc1ccc(-n2c(C(=O)NCc3ccccc3)c3n(c2=O)CCN(C(=O)c2ccc(Br)c(Cl)c2)C3)cc1 [Example 311, N-benzyl-7-(4-bromo-3-chloro-benzoyl)-2-[4-(methylamino)phenyl]-3-oxo-6,8-dihydro-5H-imidazo[1,5-a]pyrazine-1-carboxamide]",100 to 500
20,"COc1ccc([C@@H](C)NC(=O)c2c3n(c(=O)n2-c2ccc(-n4cccn4)cc2)CCN(C(=O)c2ccc(Br)c(Cl)c2)C3)cc1 [Example 454, 7-(4-bromo-3-chloro-benzoyl)-N-[(1R)-1-(4-methoxyphenyl)ethyl]-3-oxo-2-(4-pyrazol-1-ylphenyl)-6,8-dihydro-5H-imidazo[1,5-a]pyrazine-1-carboxamide]",100 to 500
21,"COc1ccc(-n2c(C(=O)NCc3ccc(C(F)(F)F)cc3)c3n(c2=O)CCN(C(=O)c2ccc(Br)c(Cl)c2)C3)cc1 [Example 140, 7-(4-bromo-3-chloro-benzoyl)-2-(4-methoxyphenyl)-3-oxo-N-[[4-(trifluoromethyl)phenyl]methyl]-6,8-dihydro-5H-imidazo[1,5-a]pyrazine-1-carboxamide]",500 to 5000

# Reference: US11591341B2 (ALIGOS THERAPEUTICS, INC., priority 2019, dated 2023)
